Literature values as cited in patent US20150132440A1, “DIPEPTIDE AND TRIPEPTIDE COMPOSITIONS AND USES” (4141 HOLDINGS, LLC, priority 2013, published 2015).
Where a SMILES comes first, the peptide text is derived from it.

Legend:
Caco-2 cells = conditions: for inhibition of H2O2-induced IL-8 secretion: Caco-2 cells pretreated with amino acids (1, 2, and 5 mM) for 2 hours, then 1 mM H2O2 for 6 hours, ELISA
L6 myotubes = conditions: for glucose uptake rate: L6 myotubes
[1] = tested on: isolated skeletal muscles
[2] = tested on: glucose transporter GLUT-4; conditions: compared with the other WPH components tested; for efficiency in translocating GLUT-4 to the PM: animal skeletal muscle
Akt = conditions: supplementation
[3] = ESR technique
[4] = tested on: human dermal fibroblasts (HDFs); conditions: for protein expression levels of intracellular antioxidant enzymes SOD1, GSH and catalase: H2O2 stressed HDF cells; for H2O2 induced DNA damage / H2O2 induced ROS production / NF-κB activation: HDF cells

C[C@H](N)C(=O)O [Ala]
GSH reductase activity (Caco-2 cells; Caco-2 cells): enhanced | inhibition of H2O2-induced IL-8 secretion (Caco-2 cells): inhibition of H2O2-induced IL-8 secretion from Caco-2 cells was observed

CN(C)CCCn1cc(C2=C(c3c[nH]c4ccccc34)C(=O)NC2=O)c2ccccc21 [GF109203X]
stimulation of glucose uptake by Ile-Leu under inhibitor treatment (L6 myotubes; L6 cells): completely inhibited | stimulation of glucose uptake by Ile-Leu under inhibitor treatment ([1]; isolated muscles): completely inhibited

N[C@@H](Cc1c[nH]cn1)C(=O)O [His]
GSH S-transferase (GST) activity (Caco-2 cells; Caco-2 cells): increases | inhibition of H2O2-induced IL-8 secretion (Caco-2 cells): inhibition of H2O2-induced IL-8 secretion from Caco-2 cells was observed

CC[C@H](C)[C@H](N)C(=O)O [Ile, L-isoleucine]
GSH S-transferase (GST) activity (Caco-2 cells; Caco-2 cells): elevated | catalase activity (Caco-2 cells; Caco-2 cells): elevated | inhibition of H2O2-induced IL-8 secretion (Caco-2 cells): inhibition of H2O2-induced IL-8 secretion from Caco-2 cells was observed | efficiency in translocating GLUT-4 to the PM [2]: greater efficiency | efficiency of increasing glucose capture by skeletal muscle [2]: greater efficiency

CC[C@H](C)[C@H](N)C(=O)N[C@H](C(=O)O)[C@@H](C)CC [Ile-Ile, L-Isoleucyl-L-isoleucine] (H-Ile-Ile-OH)
glucose uptake rate (L6 myotubes): significant stimulation

CC[C@H](C)[C@H](N)C(=O)N[C@@H](CC(C)C)C(=O)O [Ile-Leu, L-Isoleucyl-L-Leucine] (H-Ile-Leu-OH)
glucose uptake rate (L6 myotubes): significant stimulation | glycogen contents ([1]; isolated muscles): increased | glucose uptake ([1]; isolated skeletal muscles): stimulated

CC[C@H](C)[C@H](NC(=O)[C@@H](N)CC(C)C)C(=O)O [L-Leucyl-L-isoleucine] (H-Leu-Ile-OH)
efficiency in translocating GLUT-4 to the PM [2]: greater efficiency | efficiency of increasing glucose capture by skeletal muscle [2]: greater efficiency | activation of Akt (Akt): activation

CC(C)C[C@H](N)C(=O)O [Leu, L-leucine]
GSH S-transferase (GST) activity (Caco-2 cells; Caco-2 cells): elevated | catalase activity (Caco-2 cells; Caco-2 cells): elevated | inhibition of H2O2-induced IL-8 secretion (Caco-2 cells): inhibition of H2O2-induced IL-8 secretion from Caco-2 cells was observed

CC(C)C[C@H](NC(=O)[C@@H](N)CC(C)C)C(=O)O [Leu-Leu, L-Leucyl-L-leucine]
glucose uptake rate (L6 myotubes): significant stimulation

NCCCC[C@H](N)C(=O)O [Lys]
GSH S-transferase (GST) activity (Caco-2 cells; Caco-2 cells): increases | inhibition of H2O2-induced IL-8 secretion (Caco-2 cells): inhibition of H2O2-induced IL-8 secretion from Caco-2 cells was observed

N[C@@H](Cc1c[nH]c2ccccc12)C(=O)O [Trp]
GSH S-transferase (GST) activity (Caco-2 cells; Caco-2 cells): increases | inhibition of H2O2-induced IL-8 secretion (Caco-2 cells): inhibition of H2O2-induced IL-8 secretion from Caco-2 cells was observed

CC(C)[C@H](N)C(=O)O [Val, valine]
GSH S-transferase (GST) activity (Caco-2 cells; Caco-2 cells): elevated | catalase activity (Caco-2 cells; Caco-2 cells): elevated | inhibition of H2O2-induced IL-8 secretion (Caco-2 cells): inhibition of H2O2-induced IL-8 secretion from Caco-2 cells was observed

Ile-Val
glucose uptake rate (L6 myotubes): significant stimulation

Leu-Val
glucose uptake rate (L6 myotubes): significant stimulation

SPP-1: peptide QLGNLGV derived from seaweed pipefish Syngnathus schlegeli
hydroxyl radical scavenging activity [3]: significant | protein expression levels of intracellular antioxidant enzymes SOD1, GSH and catalase [4]: increase | H2O2 induced DNA damage [4]: effectively suppressed | H2O2 induced ROS production [4]: effectively suppressed | NF-κB activation [4]: block

SPP-2: peptide SVMPVVA derived from seaweed pipefish Syngnathus schlegeli
hydroxyl radical scavenging activity [3]: significant | protein expression levels of intracellular antioxidant enzymes SOD1, GSH and catalase [4]: increase | H2O2 induced DNA damage [4]: effectively suppressed | H2O2 induced ROS production [4]: effectively suppressed | NF-κB activation [4]: block

Val-Leu
glucose uptake rate (L6 myotubes): significant stimulation
